Source: PubChem BioAssay (NCI)
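96-well plates; 48 h exposure; 5 concentrations. Endpoints by linear interpolation between flanking doses. Not reached: highest tested concentration assigned. At the TGI there is no net growth.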

How the values were obtained:
Experiment in all cases: NCI tumour cell line growth inhibition, 48 h
IGROV1 ovarian = system: IGROV1 ovarian
HCT-15 colon = system: HCT-15 colon
COLO 205 colon = system: COLO 205 colon
M19-MEL melanoma = system: M19-MEL melanoma
DMS 273 small cell lung = system: DMS 273 small cell lung
OVCAR-8 ovarian = system: OVCAR-8 ovarian
HT29 colon = system: HT29 colon
LXFL 529 NSCLC = system: LXFL 529 NSCLC
CAKI-1 renal = system: CAKI-1 renal
A498 renal = system: A498 renal
TK-10 renal = system: TK-10 renal
HCT-116 colon = system: HCT-116 colon
HOP-92 NSCLC = system: HOP-92 NSCLC
M14 melanoma = system: M14 melanoma
SW-620 colon = system: SW-620 colon
SN12C renal = system: SN12C renal
SK-MEL-2 melanoma = system: SK-MEL-2 melanoma
KM20L2 colon = system: KM20L2 colon
UACC-257 melanoma = system: UACC-257 melanoma
SF-268 CNS = system: SF-268 CNS
HOP-18 NSCLC = system: HOP-18 NSCLC
SK-MEL-5 melanoma = system: SK-MEL-5 melanoma
SF-295 CNS = system: SF-295 CNS
RPMI-8226 leukemia = system: RPMI-8226 leukemia
SF-539 CNS = system: SF-539 CNS
SK-OV-3 ovarian = system: SK-OV-3 ovarian
NCI-H460 lung = system: NCI-H460 lung
KM12 colon = system: KM12 colon
SNB-78 CNS = system: SNB-78 CNS
SK-MEL-28 melanoma = system: SK-MEL-28 melanoma
MALME-3M melanoma = system: MALME-3M melanoma
OVCAR-3 ovarian = system: OVCAR-3 ovarian
UACC-62 melanoma = system: UACC-62 melanoma
K-562 leukemia = system: K-562 leukemia
DLD-1 colon = system: DLD-1 colon
LOX IMVI melanoma = system: LOX IMVI melanoma
HCC-2998 colon = system: HCC-2998 colon
NCI-H226 lung = system: NCI-H226 lung
NCI-H522 lung = system: NCI-H522 lung
HOP-62 NSCLC = system: HOP-62 NSCLC
CCRF-CEM leukemia = system: CCRF-CEM leukemia
ACHN renal = system: ACHN renal
U251 CNS = system: U251 CNS
NCI-H23 lung = system: NCI-H23 lung
MOLT-4 leukemia = system: MOLT-4 leukemia
SR leukemia = system: SR leukemia
SNB-75 CNS = system: SNB-75 CNS
RXF 393 renal = system: RXF 393 renal
786-0 renal = system: 786-0 renal
SNB-19 CNS = system: SNB-19 CNS
HL-60(TB) leukemia = system: HL-60(TB) leukemia
DMS 114 small cell lung = system: DMS 114 small cell lung
RXF-631 renal = system: RXF-631 renal
UO-31 renal = system: UO-31 renal
OVCAR-5 ovarian = system: OVCAR-5 ovarian
XF 498 CNS = system: XF 498 CNS
EKVX NSCLC = system: EKVX NSCLC
OVCAR-4 ovarian = system: OVCAR-4 ovarian
A549 NSCLC = system: A549 NSCLC
MCF7 breast = system: MCF7 breast
P388 leukemia = system: P388 leukemia
P388/ADR leukemia = system: P388/ADR leukemia
NCI/ADR-RES ovarian = system: NCI/ADR-RES ovarian
SN12K1 renal = system: SN12K1 renal

Measured: TGI

CCCCCCCCOCC(O)CO (centres undefined)
65 µM: CCRF-CEM leukemia
not listed: MCF7 breast | P388 leukemia | P388/ADR leukemia | NCI/ADR-RES ovarian | SN12K1 renal
> 100 µM: all other assays above

c1ccc2c(c1)OCCc1cn[nH]c1-2
87.9 µM: CAKI-1 renal
> 92.5 µM: SNB-75 CNS
95.5 µM: NCI-H226 lung
not listed: M19-MEL melanoma | LXFL 529 NSCLC | TK-10 renal | M14 melanoma | RPMI-8226 leukemia | ACHN renal | SR leukemia | 786-0 renal | RXF-631 renal
> 100 µM: all other assays above
